A short description of data set [1]: Oral bioavailability in dog (dose 1 mg/kg). It is filed as ADME, organism-based, Canis lupus familiaris. The note with it: in vivo.
Data set [2] can be described thus: Clearance when dosed intravenously at 0.2 mpk to dogs; n = 2. It is filed as ADME, organism-based, Canis lupus familiaris. The note with it: dog, in vivo, iv, 0.2 mg/kg.
Data set [3] can be described thus: In vitro inhibition of mouse osteoblast-like 1.8 cells transformation into osteoclasts. The class given is functional.
A short description of data set [4]: Partition coefficient (logP). It is filed as physicochemical. The note with it: octanol/water.
Data set [5] in a line: Plasma half life when dosed orally at 1 mpk and intravenously at 0.2 mpk to dogs; n = 2. The conditions noted are these: dog. It is filed as ADME, organism-based, Canis lupus familiaris.
A further data set deals with Integrin alpha-V/beta-3 (Homo sapiens, UniProt P05106+P06756). The data set can be described thus: Inhibition of 2(S)-(4-125I-benzenesulphonylamino)-3-4-[2-(5,6,7,8-tetrahydro- [1,8]naphthyridin-2-yl)-ethyl]-benzoylamino-propionic acid binding to alphaV-beta3 integrin. It is filed as protein-complex assay.
Integrin alpha-V/beta-3, sequence (P05106 27-788 limits assumed): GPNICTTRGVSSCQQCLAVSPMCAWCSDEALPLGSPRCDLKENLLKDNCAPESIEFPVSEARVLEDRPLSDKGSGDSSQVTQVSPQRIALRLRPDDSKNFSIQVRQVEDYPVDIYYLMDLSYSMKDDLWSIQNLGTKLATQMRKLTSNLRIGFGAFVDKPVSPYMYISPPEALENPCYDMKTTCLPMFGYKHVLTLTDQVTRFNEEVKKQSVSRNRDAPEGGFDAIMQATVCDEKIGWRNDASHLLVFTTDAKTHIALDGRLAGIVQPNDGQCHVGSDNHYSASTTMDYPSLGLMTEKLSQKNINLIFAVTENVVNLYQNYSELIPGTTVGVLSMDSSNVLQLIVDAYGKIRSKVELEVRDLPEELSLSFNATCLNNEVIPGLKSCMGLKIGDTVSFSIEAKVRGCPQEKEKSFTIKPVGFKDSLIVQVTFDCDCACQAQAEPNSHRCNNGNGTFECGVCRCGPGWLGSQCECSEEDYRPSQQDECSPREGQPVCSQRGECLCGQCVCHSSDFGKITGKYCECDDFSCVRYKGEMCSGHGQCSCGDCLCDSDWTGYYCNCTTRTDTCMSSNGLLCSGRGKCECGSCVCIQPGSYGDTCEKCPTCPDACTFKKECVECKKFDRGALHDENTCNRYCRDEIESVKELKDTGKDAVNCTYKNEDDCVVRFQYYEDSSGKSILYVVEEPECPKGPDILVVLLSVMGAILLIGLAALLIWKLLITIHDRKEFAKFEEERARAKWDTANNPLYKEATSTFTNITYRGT
Integrin alpha-V/beta-3, sequence (P06756 31-889 limits assumed): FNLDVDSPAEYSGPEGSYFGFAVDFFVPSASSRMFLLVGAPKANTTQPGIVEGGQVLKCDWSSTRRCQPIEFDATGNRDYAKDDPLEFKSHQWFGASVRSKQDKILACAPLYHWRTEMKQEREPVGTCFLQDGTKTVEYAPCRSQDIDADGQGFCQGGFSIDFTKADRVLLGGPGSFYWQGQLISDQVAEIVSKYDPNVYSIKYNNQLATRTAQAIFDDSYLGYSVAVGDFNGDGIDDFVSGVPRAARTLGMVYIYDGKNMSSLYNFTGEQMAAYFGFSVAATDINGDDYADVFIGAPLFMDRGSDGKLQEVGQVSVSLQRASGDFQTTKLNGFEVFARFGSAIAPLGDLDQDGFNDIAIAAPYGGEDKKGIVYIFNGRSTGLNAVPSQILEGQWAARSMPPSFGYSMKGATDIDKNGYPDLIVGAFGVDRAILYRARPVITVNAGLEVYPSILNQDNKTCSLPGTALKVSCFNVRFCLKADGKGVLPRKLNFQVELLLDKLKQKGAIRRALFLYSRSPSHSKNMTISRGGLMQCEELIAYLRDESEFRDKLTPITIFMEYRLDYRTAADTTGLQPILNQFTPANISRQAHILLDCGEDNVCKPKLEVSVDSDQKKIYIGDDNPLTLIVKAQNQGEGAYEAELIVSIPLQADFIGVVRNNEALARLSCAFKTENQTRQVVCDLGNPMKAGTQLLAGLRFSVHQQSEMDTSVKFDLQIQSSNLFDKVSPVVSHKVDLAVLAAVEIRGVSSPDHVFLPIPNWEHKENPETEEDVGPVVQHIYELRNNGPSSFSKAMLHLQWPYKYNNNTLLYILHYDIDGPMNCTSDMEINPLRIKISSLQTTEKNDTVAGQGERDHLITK
Integrin alpha-V/beta-3, sequence (P06756 891-1048 limits assumed): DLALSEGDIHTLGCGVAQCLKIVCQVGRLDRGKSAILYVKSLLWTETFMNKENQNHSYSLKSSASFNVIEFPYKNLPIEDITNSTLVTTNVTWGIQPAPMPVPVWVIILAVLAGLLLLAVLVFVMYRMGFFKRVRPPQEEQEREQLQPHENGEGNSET

One may read the bioavailability as dose-corrected exposure relative to a reference, in per cent. As usually defined, the clearance is the volume of plasma or blood freed of the substance per unit of time. As a reminder, the IC50 is the concentration that gives 50% inhibition. For orientation: logP means the decadic logarithm of the partition coefficient of the neutral form, usually between octanol and water. A higher logP goes with a more lipophilic compound. Usually half-life stands for the time in which the quantity being followed falls by half.

Regarding `COc1ccc([C@@H](CCC[C@H](O)CCc2ccc3c(n2)NCCC3)CC(=O)O)cn1`, the bioavailability in data set [1] amounted to 60%. The compound further yielded a clearance in data set [2] of 2.5 mL/min/kg. In addition, the IC50 in data set [3] was found to be 8 nM; at Integrin alpha-V/beta-3, 0.24 nM. The logP in data set [4] amounted to 0.1. Also, the half-life in data set [5] was 6.1 h.

For the compound `COc1ccc([C@@H](CCC[C@@H](O)CCc2ccc3c(n2)NCCC3)CC(=O)O)cn1`, the values for the IC50 (in data set [3]; at Integrin alpha-V/beta-3) were 36 nM and 0.24 nM, respectively. Moreover, the logP in data set [4] is 0.

In data set [2], `COc1ccc([C@@H](CCCCCCc2ccc3c(n2)NCCC3)CC(=O)O)cn1` returned a clearance of 4 mL/min/kg. The compound also registered an IC50 in data set [3] of 39 nM. Moreover, the half-life in data set [5] was 9 h.

In data set [1], `COc1ccc([C@@H](CCCC(=O)CCc2ccc3c(n2)NCCC3)CC(=O)O)cn1` displayed a bioavailability of 75%. This compound also gave a clearance in data set [2] of 6.7 mL/min/kg. The half-maximal inhibitory concentration (IC50) was 12 nM in data set [3] and 0.16 nM on Integrin alpha-V/beta-3. For the same compound, the logP in data set [4] was 0. The compound also had a half-life in data set [5] of 7 h.

For the origin of these results see ChEMBL document CHEMBL1142042, “Nonpeptide alpha(v)beta3 antagonists: identification of potent, chain-shortened 7-oxo RGD mimetics” (Bioorg Med Chem Lett, 2005).
